Tests used:
[1] = system: mite-induced airway hyperresponsiveness; assay: Mite-induced airway hyperresponsiveness, pause enhancement (Penh) by whole-body plethysmography; assay type: in vivo, BALB/c mouse
Source text: FIG. 4 illustrates experimental design. All groups except control group were immunized with mite crude extract allergen on days 1 and 8, then mite crude extract allergen intratracheally on day 15 in all mite treated group, BALB/c mouse were divided into six groups (1) control group (PBS), (2) mites delivered intratracheally (mIT, mite on day 15) alone, (3) CMP intranasal (eIN, CMP on days 1 to 22) alone, (4) preventive-treatment group (eIN+mIT, CMP on days 1 to 14, mite on day 15) (5) therapy-treatment group (mIT+eIN, mite on day 15, CMP on days 15 to 22), and (6) preventive- and therapeutic-treatment group (eIN+mIT+eIN, CMP on days 1 to 22, mite on day 15).
FIG. 5 illustrates inhibitory effect of CMP on mite-induced airway hyperresponsiveness. The effect of methacholine (MCh) on pause enhancement (Penh) in mouse exposed to CMP in the presence and absence of mite proteins. Penh was measured in all six treatment groups after stimulation with 6.25, 12.5, or 25 mg/ml MCh for 1 min. The values were presented as a ratio with respect to the baseline Penh (before MCh stimulation) for each group. Each result was expressed as the mean±S.D., n=4. **, P<0.01. ***, P<0.001. […]
Airway responsiveness was measured in mouse on day 22 (i.e., 1 hour after the last challenge) in conscious, spontaneously breathing mouse using a whole-body plethysmography system (Buxco, Wilmington, N.C., USA) as described before (Maeda T, et al, Eur J Biochem 2002, 269, 307-316). […] The chamber-pressure-time wave was continuously measured via a transducer connected to a computer data acquisition system. After a baseline Penh reading for >3 min, mice were serially exposed to increasing concentrations of nebulized methacholine (MCh) (0, 6.25, 12.5, and 25 mg/ml; Sigma, St Louis, Mo., USA) in PBS for 1 min by inhalation. Penh values, which are measured as changes in enhanced pause, tidal volume, and breathing frequency (breaths/minute) for the first 3 min after the end of MCh nebulization, were averaged and used to compare responses among all six-treatment groups. […]

mouse colon cancer cells = assay: Transwell migration assay, mouse colon cancer cells; assay type: cell-based; conditions: 5 μM CMP pretreatment 30 min, 18 hours
Method: FIG. 10 illustrates Tumor migration inhibition by CMP. A549, H460 and mouse colon cancer cells were incubated with CMP at 37° C. for 30 min before adding to the top chamber of transwell membranes in 24-well dishes at a density of 2×10^4 cells/well. Data represented the mean±S.E. of triplicate samples from a representative experiment. The experiment was repeated at least three times with similar results
Cancer cell inhibition by CMP was performed in a 24-well Transwell chamber consisting of a cell culture insert (6.4 mm diameter, 8-1 μm pore polyethylene tetraphtalate membrane, [Becton Dickinson]) set in each well of a 24-well companion plate (Becton Dickinson). Briefly, 3×10^4 cancer cells were suspended and pretreated with 5 and 12.5 μM CMP for 30 min in a total volume of 200 μL. Cell suspensions were inoculated into the upper chamber of an insert, 5% fetal bovine serum (FBS) in medium as a chemoattractant was added to the plate well in the bottom chamber, and incubated for 18 hours in a humidified incubator at 37° C. with 5% CO2. The non-migratory cells on the upper membrane surface were removed with a cotton swab, and the migratory cells attached to the lower membrane surface were fixed with 4% paraformaldehyde and stained with 0.2% crystal violet. The number of migrated cells was counted in four randomly selected high power fields under microscope. […]

## NYRWRCKNQN (CMP)
[1]; CMP intranasal, eIN+mIT, mIT+eIN and eIN+mIT+eIN groups
  AHR, response to increasing dose of inhaled methacholine: significantly decrease
[1]; eIN+mIT and mIT+eIN groups, 25 mg/ml MCh
  Penh stimulation compared with mite group: lower stimulation
[1]; mIT vs eIN+mIT+eIN group, 12.5 and 25 mg/ml MCh
  Penh/baseline ratio change of mIT group compared with CMP group: much higher
Mouse colon cancer cells
  decrease of migration activity: 60%
